The values that follow come from patent US20230287217A1, “Zwitterionic Cell-Permeant and Water-Soluble Rhodamine Dyes for Quantitative Imaging Applications” (OREGON HEALTH & SCIENCE UNIVERSITY, priority 2020, published 2023).

The series in a line: UV-Vis absorption and fluorescence spectroscopy (spectral properties in aqueous media / PBS buffer). The arrangement: Brightness: unit not given here. The following applies: aqueous media; for FWHMabs (nm): absorption band width; for λabs (nm): absorption maximum; for FWHem (nm): emission band width; for λem (nm): emission maximum; for ε (M^-1 cm-1): extinction coefficient from Beer's Law plots; for ϕ: relative quantum yield, TMR and SiTMR as reference. The class given is physicochemical. How it is done:
UV-Vis and fluorescence spectra were collected on a SpectraMax M5 spectrometer with a Microplate reader (Molecular Devices, Sunnyvale, CA). All absorbance spectra were reference corrected. Extinction coefficient was calculated from Beer’s Law plots of absorbance versus concentration. Relative quantum yields are reported using TMR and SiTMR as reference.

As to `Cc1cc(C(=O)O)ccc1-c1c2cc/c(=[N+](/C)CCCS(=O)(=O)[O-])cc-2oc2cc(N(C)C)ccc12` [OF550COOH, (E)((9-(4-carboxy-2-methylphenyl)-6-(dimethylamino)-3H-xanthenylidene)(methyl)ammonio)propane-1-sulfonate], the Brightness is 78, the “Stokes Shift (nm)” value was 24 nm, the “FWHMabs (nm)” value is 33 nm and the “λabs (nm)” value came out at 554 nm. The “FWHem (nm)” value came out at 42 nm, the “λem (nm)” value worked out at 578 nm, the “ε (M^-1 cm-1)” value is listed as 112,600 M^-1 cm-1 and the ϕ is 0.69.

On to `C#Cc1cccc(Nc2ncnc3ccc(NC(=O)CCNC(=O)c4ccc(-c5c6cc/c(=[N+](/C)CCCS(=O)(=O)[O-])cc-6oc6cc(N(C)C)ccc56)c(C)c4)cc23)c1` [OF550Erl(T), (E)((6-(dimethylamino)-9-(4-((3-((4-((3-ethynylphenyl)amino)quinazolin-6-yl)amino)oxopropyl)carbamoyl)-2-methylphenyl)-3H-xanthenylidene)(methyl)ammonio)propane-1-sulfonate], for which the Brightness was found to be 7, the “Stokes Shift (nm)” value is given as 17 nm, the “FWHMabs (nm)” value came to 80 nm and the “λabs (nm)” value is 566 nm. For the same compound, the “FWHem (nm)” value amounted to 47 nm, the “λem (nm)” value is reported as 583 nm, the “ε (M^-1 cm-1)” value is reported as 24,500 M^-1 cm-1 and the ϕ is given as 0.28.

With `Cc1cc(C(=O)NCCCn2cc(-c3cccc(Nc4ncnc5ccccc45)c3)nn2)ccc1-c1c2cc/c(=[N+](/C)CCCS(=O)(=O)[O-])cc-2oc2cc(N(C)C)ccc12` [OF550Erl(UnT), (E)((6-(dimethylamino)-9-(2-methyl-4-((3-(4-(3-(quinazolin-4-ylamino)phenyl)-1H-1,2,3-triazol-1-yl)propyl)carbamoyl)phenyl)-3H-xanthenylidene)(methyl)ammonio)propane-1-sulfonate], the Brightness is reported as 35, the “Stokes Shift (nm)” value came to 25 nm, the “FWHMabs (nm)” value is listed as 35 nm and the “λabs (nm)” value amounted to 560 nm. Moreover, the “FWHem (nm)” value was determined as 44 nm, the “λem (nm)” value came to 585 nm, the “ε (M^-1 cm-1)” value is recorded as 50,200 M^-1 cm-1 and the ϕ was determined as 0.69.

For `Cc1cc(C(=O)NCCOCCOCCCCCCCl)ccc1-c1c2cc/c(=[N+](/C)CCCS(=O)(=O)[O-])cc-2oc2cc(N(C)C)ccc12` [OF550HALO, (E)((9-(4-((2-(2-((6-chlorohexyl)oxy)ethoxy)ethyl)carbamoyl)-2-methylphenyl)-6-(dimethylamino)-3H-xanthenylidene)(methyl)ammonio)propane-1-sulfonate], the Brightness is 53, the “Stokes Shift (nm)” value was determined as 25 nm, the “FWHMabs (nm)” value came out at 34 nm and the “λabs (nm)” value was 556 nm. Further, the “FWHem (nm)” value is recorded as 42 nm, the “λem (nm)” value came to 581 nm, the “ε (M^-1 cm-1)” value was 97,200 M^-1 cm-1 and the ϕ stood at 0.55.

With `Cc1cc(C(=O)NCc2ccc(COc3nc(N)nc4[nH]cnc34)cc2)ccc1-c1c2cc/c(=[N+](/C)CCCS(=O)(=O)[O-])cc-2oc2cc(N(C)C)ccc12` [OF550SNAP, (E)((9-(4-((4-(((2-amino-9H-purin-6-yl)oxy)methyl)benzyl)carbamoyl)-2-methylphenyl)-6-(dimethylamino)-3H-xanthenylidene)(methyl)ammonio)propane-1-sulfonate], the Brightness came to 21, the “Stokes Shift (nm)” value was found to be 24 nm, the “FWHMabs (nm)” value worked out at 38 nm and the “λabs (nm)” value was determined as 556 nm. The “FWHem (nm)” value is recorded as 43 nm, the “λem (nm)” value is reported as 580 nm, the “ε (M^-1 cm-1)” value is 59,500 M^-1 cm-1 and the ϕ came out at 0.36.

On to `Cc1cc(C(=O)[O-])ccc1C1=C2C=C/C(=[N+](/C)CCCS(=O)(=O)O)C=C2[Si](C)(C)c2cc(N(C)C)ccc21` [OF650COOH, (E)-3-((10-(4-carboxy-2-methylphenyl)-7-(dimethylamino)-5,5-dimethyldibenzo[b,e]silin-3(5H)-ylidene)(methyl)ammonio)propane-1-sulfonate], for which the Brightness is 82, the “Stokes Shift (nm)” value came out at 22 nm, the “FWHMabs (nm)” value amounted to 34 nm and the “λabs (nm)” value is recorded as 650 nm. Moreover, the “FWHem (nm)” value is 42 nm, the “λem (nm)” value is listed as 672 nm, the “ε (M^-1 cm-1)” value is 200,600 M^-1 cm-1 and the ϕ came to 0.41.

On to `C#Cc1cccc(Nc2ncnc3ccc(NC(=O)CCNC(=O)c4ccc(C5=C6C=C/C(=[N+](/C)CCCS(=O)(=O)[O-])C=C6[Si](C)(C)c6cc(N(C)C)ccc65)c(C)c4)cc23)c1` [OF650Erl(T)], for which the Brightness came out at 7, the “Stokes Shift (nm)” value stood at 17 nm, the “FWHMabs (nm)” value turned out to be 38 nm and the “λabs (nm)” value is recorded as 656 nm. Besides, the “FWHem (nm)” value stood at 41 nm, the “λem (nm)” value turned out to be 673 nm, the “ε (M^-1 cm-1)” value is recorded as 43,400 M^-1 cm-1 and the ϕ is reported as 0.16.

As to `CN(C)c1ccc2c(c1)[Si](C)(C)C1=CC(=[N+](C)C)C=CC1=C2c1cc(C(=O)O)ccc1C(=O)[O-]` [SiRCOOH, 4-carboxy-2-(7-(dimethylamino)-3-(dimethyliminio)-5,5-dimethyl-3,5-dihydrodibenzo[b,e]silin-10-yl)benzoate], the Brightness is 29, the “Stokes Shift (nm)” value is 22 nm, the “FWHMabs (nm)” value worked out at 39 nm and the “λabs (nm)” value came out at 645 nm. Besides, the “FWHem (nm)” value was determined as 42 nm, the “λem (nm)” value was determined as 667 nm, the “ε (M^-1 cm-1)” value is listed as 64,700 M^-1 cm-1 and the ϕ came to 0.45.

Take `C#Cc1cccc(Nc2ncnc3ccc(NC(=O)CCNC(=O)c4ccc(C(=O)[O-])c(C5=C6C=CC(=[N+](C)C)C=C6[Si](C)(C)c6cc(N(C)C)ccc65)c4)cc23)c1` [SiRErl(T)]: the Brightness came out at 5, the “Stokes Shift (nm)” value was 22 nm, the “FWHMabs (nm)” value amounted to 42 nm and the “λabs (nm)” value worked out at 656 nm. For the same compound, the “FWHem (nm)” value is given as 53 nm, the “λem (nm)” value turned out to be 678 nm, the “ε (M^-1 cm-1)” value is recorded as 34,800 M^-1 cm-1 and the ϕ was determined as 0.13.

As for `CN(C)c1ccc2c(c1)[Si](C)(C)C1=CC(=[N+](C)C)C=CC1=C2c1cc(C(=O)NCCCn2cc(-c3cccc(Nc4ncnc5ccccc45)c3)nn2)ccc1C(=O)[O-]` [SiRErl(UnT)], the Brightness is on record as 5, the “Stokes Shift (nm)” value was determined as 16 nm, the “FWHMabs (nm)” value is reported as 38 nm and the “λabs (nm)” value was found to be 654 nm. The “FWHem (nm)” value was found to be 43 nm, the “λem (nm)” value amounted to 670 nm, the “ε (M^-1 cm-1)” value is reported as 24,100 M^-1 cm-1 and the ϕ was 0.19.

Regarding `CN(C)c1ccc2c(c1)[Si](C)(C)C1=CC(=[N+](C)C)C=CC1=C2c1cc(C(=O)NCCOCCOCCCCCCCl)ccc1C(=O)[O-]` [SiRHALO], the Brightness was found to be 3, the “Stokes Shift (nm)” value amounted to 18 nm, the “FWHMabs (nm)” value turned out to be 45 nm and the “λabs (nm)” value amounted to 646 nm. Further, the “FWHem (nm)” value amounted to 45 nm, the “λem (nm)” value was 664 nm, the “ε (M^-1 cm-1)” value is given as 11,100 M^-1 cm-1 and the ϕ came to 0.25.

Take `CN(C)c1ccc2c(-c3cc(C(=O)O)ccc3C(=O)[O-])c3ccc(=[N+](C)C)cc-3oc2c1` [TMRCOOH, 4-carboxy-2-(6-(dimethylamino)-3-(dimethyliminio)-3H-xanthen-9-yl)benzoate]: the Brightness is listed as 49, the “Stokes Shift (nm)” value is given as 26 nm, the “FWHMabs (nm)” value turned out to be 42 nm and the “λabs (nm)” value is on record as 550 nm. Further, the “FWHem (nm)” value is recorded as 44 nm, the “λem (nm)” value is recorded as 576 nm, the “ε (M^-1 cm-1)” value was 83,800 M^-1 cm-1 and the ϕ is reported as 0.58.

On to `C#Cc1cccc(Nc2ncnc3ccc(NC(=O)CCNC(=O)c4ccc(C(=O)[O-])c(-c5c6ccc(=[N+](C)C)cc-6oc6cc(N(C)C)ccc56)c4)cc23)c1` [TMRErl(T)], for which the Brightness came to 21, the “Stokes Shift (nm)” value is on record as 24 nm, the “FWHMabs (nm)” value amounted to 39 nm and the “λabs (nm)” value is 563 nm. Also, the “FWHem (nm)” value came to 42 nm, the “λem (nm)” value worked out at 587 nm, the “ε (M^-1 cm-1)” value is given as 33,100 M^-1 cm-1 and the ϕ is recorded as 0.62.

For the compound `CN(C)c1ccc2c(-c3cc(C(=O)NCCCn4cc(-c5cccc(Nc6ncnc7ccccc67)c5)nn4)ccc3C(=O)[O-])c3ccc(=[N+](C)C)cc-3oc2c1` [TMRErl(UnT)], the Brightness was 7, the “Stokes Shift (nm)” value is recorded as 26 nm, the “FWHMabs (nm)” value is on record as 44 nm and the “λabs (nm)” value is listed as 559 nm. Besides, the “FWHem (nm)” value was 43 nm, the “λem (nm)” value was 585 nm, the “ε (M^-1 cm-1)” value is 18,700 M^-1 cm-1 and the ϕ was 0.37.

For the compound `CN(C)c1ccc2c(-c3cc(C(=O)NCc4ccc(COc5nc(N)nc6[nH]cnc56)cc4)ccc3C(=O)[O-])c3ccc(=[N+](C)C)cc-3oc2c1` [TMRSNAP], the Brightness is reported as 11, the “Stokes Shift (nm)” value was 24 nm, the “FWHMabs (nm)” value worked out at 58 nm and the “λabs (nm)” value amounted to 553 nm. The “FWHem (nm)” value is on record as 45 nm, the “λem (nm)” value came out at 577 nm, the “ε (M^-1 cm-1)” value is 27,700 M^-1 cm-1 and the ϕ was 0.41.
